According to ChEMBL document CHEMBL1909046, “DrugMatrix in vitro pharmacology data”:

Legend:
Adenosine receptor A1 = target: T1, Adenosine receptor A1 (Homo sapiens, UniProt P30542); type: cell membranes, CHO, Membrane;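 note: radioligand binding assay at the adenosine A1 receptor, with DPCPX serving as the labelled ligand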
T1 sequence (P30542 whole entry): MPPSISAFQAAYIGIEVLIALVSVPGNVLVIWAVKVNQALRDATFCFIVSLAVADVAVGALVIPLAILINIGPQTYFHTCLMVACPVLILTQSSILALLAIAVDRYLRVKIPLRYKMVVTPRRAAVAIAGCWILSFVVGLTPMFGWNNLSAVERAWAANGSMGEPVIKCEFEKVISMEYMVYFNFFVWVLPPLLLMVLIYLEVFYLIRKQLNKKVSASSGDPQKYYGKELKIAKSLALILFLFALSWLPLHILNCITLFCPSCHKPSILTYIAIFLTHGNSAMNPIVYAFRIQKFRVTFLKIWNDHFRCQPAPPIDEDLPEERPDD

[1] = target: C-C chemokine receptor type 2 (Homo sapiens, UniProt P41597); type: cell membranes, CHO-K1, Membrane
Histamine H2 receptor = Histamine H2 receptor (Homo sapiens, UniProt P25021); type: cell membranes, CHO-K1, Membrane
[2] = target: 5-hydroxytryptamine receptor 6 (Homo sapiens, UniProt P50406); type: cell membranes, HeLa, Membrane
Substance-P receptor = Substance-P receptor (Homo sapiens, UniProt P25103); type: cell membranes, CHO, Membrane
Note: in other assays of this panel Not Active means under 50% inhibition at 10 µM.

Chain of C-C chemokine receptor type 2 (P41597 whole entry): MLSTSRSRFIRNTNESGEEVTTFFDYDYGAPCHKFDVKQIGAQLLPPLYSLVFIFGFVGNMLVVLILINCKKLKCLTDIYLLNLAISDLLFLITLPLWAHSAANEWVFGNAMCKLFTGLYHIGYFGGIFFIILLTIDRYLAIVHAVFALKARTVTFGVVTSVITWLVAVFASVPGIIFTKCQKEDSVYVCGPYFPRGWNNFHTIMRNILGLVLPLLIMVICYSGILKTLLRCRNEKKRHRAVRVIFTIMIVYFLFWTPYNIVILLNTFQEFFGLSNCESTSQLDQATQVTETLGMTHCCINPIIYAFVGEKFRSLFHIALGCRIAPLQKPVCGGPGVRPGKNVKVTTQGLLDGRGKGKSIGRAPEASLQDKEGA
Chain of Substance-P receptor (P25103 whole entry): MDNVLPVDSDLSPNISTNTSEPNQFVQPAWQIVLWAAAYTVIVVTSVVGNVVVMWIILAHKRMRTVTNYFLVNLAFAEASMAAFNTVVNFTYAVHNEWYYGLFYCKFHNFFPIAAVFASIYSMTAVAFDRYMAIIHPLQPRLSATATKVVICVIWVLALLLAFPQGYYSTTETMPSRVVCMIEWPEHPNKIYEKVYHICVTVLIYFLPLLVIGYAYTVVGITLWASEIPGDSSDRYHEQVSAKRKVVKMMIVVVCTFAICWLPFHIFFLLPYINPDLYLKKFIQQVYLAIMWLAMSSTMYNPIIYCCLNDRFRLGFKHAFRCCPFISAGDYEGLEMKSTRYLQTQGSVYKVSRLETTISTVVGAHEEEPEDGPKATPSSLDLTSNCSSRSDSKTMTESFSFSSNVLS
Chain of 5-hydroxytryptamine receptor 6 (P50406 whole entry): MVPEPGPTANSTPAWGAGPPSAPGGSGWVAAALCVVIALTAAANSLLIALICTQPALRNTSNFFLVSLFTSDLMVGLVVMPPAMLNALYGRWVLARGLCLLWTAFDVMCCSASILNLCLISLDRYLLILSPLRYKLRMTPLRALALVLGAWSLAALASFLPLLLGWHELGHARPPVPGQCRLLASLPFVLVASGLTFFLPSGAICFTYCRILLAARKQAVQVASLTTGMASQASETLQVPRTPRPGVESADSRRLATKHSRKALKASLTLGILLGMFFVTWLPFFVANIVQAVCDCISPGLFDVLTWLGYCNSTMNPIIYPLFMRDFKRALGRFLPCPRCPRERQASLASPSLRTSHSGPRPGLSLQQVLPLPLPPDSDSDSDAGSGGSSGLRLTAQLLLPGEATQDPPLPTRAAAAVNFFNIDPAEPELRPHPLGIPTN
Chain of Histamine H2 receptor (P25021 whole entry): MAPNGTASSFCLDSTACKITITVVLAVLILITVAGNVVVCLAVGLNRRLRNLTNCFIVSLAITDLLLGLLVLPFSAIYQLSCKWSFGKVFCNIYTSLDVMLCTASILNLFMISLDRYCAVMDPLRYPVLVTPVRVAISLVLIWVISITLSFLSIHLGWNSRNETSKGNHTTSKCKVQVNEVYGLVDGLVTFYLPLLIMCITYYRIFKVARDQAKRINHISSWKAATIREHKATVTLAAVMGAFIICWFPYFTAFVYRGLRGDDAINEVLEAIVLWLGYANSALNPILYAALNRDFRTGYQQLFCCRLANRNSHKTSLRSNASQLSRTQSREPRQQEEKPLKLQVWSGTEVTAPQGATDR

| Molecule | IC50 (Adenosine receptor A1; cho) | IC50 ([1]; cho-k1) | IC50 (Histamine H2 receptor; cho-k1) | IC50 ([2]; hela) | IC50 (Substance-P receptor; cho) | also measured |
| --- | --- | --- | --- | --- | --- | --- |
| N[C@@H](Cc1ccc(N(CCCl)CCCl)cc1)C(=O)O | Not Active | Not Active | Not Active | Not Active | Not Active |  |
| CC(C)N1CCN(c2ccc(OCC3COC(Cn4cncn4)(c4ccc(Cl)cc4Cl)O3)cc2)CC1 (stereo not given) [TERCONAZOLE] | Not Active | Not Active | Not Active | Not Active | Not Active |  |
| Cc1nc2n(c(=O)c1CCN1CCC(c3noc4cc(F)ccc34)CC1)CCCC2 [RISPERIDONE] | Not Active | Not Active |  | Not Active | Not Active |  |
| N[C@@H]1[C@H]2CN(c3nc4c(cc3F)c(=O)c(C(=O)O)cn4-c3ccc(F)cc3F)C[C@@H]12 [TROVAFLOXACIN] | Not Active | Not Active | Not Active | Not Active | Not Active |  |
| O=c1ncn2nc(Sc3ccc(F)cc3F)ccc2c1-c1c(Cl)cccc1Cl [NEFLAMAPIMOD] | Not Active | Not Active | Not Active | Not Active | Not Active |  |
| CCCCc1oc2ccccc2c1C(=O)c1cc(I)c(OCCN(CC)CC)c(I)c1 [AMIODARONE] | Not Active |  |  |  | Not Active | IC50 ([1]; read-out: IC50): 11.1 µM; Ki ([1]; read-out: Ki): 4.28 µM; IC50 ([2]; read-out: IC50): 19.4 µM; Ki ([2]; read-out: Ki): 9.03 µM |
| CC[C@]1(O)C[C@H]2CN(CCc3c([nH]c4ccccc34)[C@@](C(=O)OC)(c3cc4c(cc3OC)N(C=O)[C@H]3[C@@](O)(C(=O)OC)[C@H](OC(C)=O)[C@]5(CC)C=CCN6CC[C@]43[C@@H]65)C2)C1 [VINCRISTINE] | Not Active | Not Active | Not Active | Not Active | Not Active |  |
| CO[C@H]1/C=C/O[C@@]2(C)Oc3c(C)c(O)c4c(O)c(c(/C=N/N5CCN(C)CC5)c(O)c4c3C2=O)NC(=O)/C(C)=C\C=C\[C@H](C)[C@H](O)[C@@H](C)[C@@H](O)[C@@H](C)[C@H](OC(C)=O)[C@@H]1C [RIFAMPIN] | Not Active | Not Active | Not Active | Not Active | Not Active |  |
| Cc1noc(NS(=O)(=O)c2ccc(N)cc2)c1C [SULFISOXAZOLE] | Not Active | Not Active | Not Active | Not Active | Not Active |  |
| NS(=O)(=O)c1cc2c(cc1Cl)NC(C(Cl)Cl)NS2(=O)=O (stereo not given) [TRICHLORMETHIAZIDE] | Not Active | Not Active | Not Active | Not Active | Not Active |  |
| COc1nc(C)nc(Cl)c1NC1=NCCN1 [MOXONIDINE] | Not Active | Not Active | Not Active | Not Active | Not Active |  |
| Nc1nc2ccc(OC(F)(F)F)cc2s1 [RILUZOLE] | Not Active | Not Active | Not Active | Not Active | Not Active |  |
| N[C@@H](Cc1cc(I)c(Oc2ccc(O)c(I)c2)c(I)c1)C(=O)O [LIOTHYRONINE] |  | Not Active | Not Active | Not Active | Not Active | IC50 (Adenosine receptor A1; read-out: IC50): 0.411 µM; Ki (Adenosine receptor A1; read-out: Ki): 0.24 µM |
| C[C@@H]1CN(c2c(F)c(N)c3c(=O)c(C(=O)O)cn(C4CC4)c3c2F)C[C@H](C)N1 [SPARFLOXACIN] | Not Active | Not Active | Not Active | Not Active | Not Active |  |
| CC1(C)O[C@@H]2C[C@H]3[C@@H]4CCC5=CC(=O)C=C[C@]5(C)[C@@]4(F)[C@@H](O)C[C@]3(C)[C@]2(C(=O)CO)O1 [TRIAMCINOLONE ACETONIDE] | Not Active | Not Active | Not Active | Not Active | Not Active |  |
| CSc1ccc(/C=C2/C(C)=C(CC(=O)O)c3cc(F)ccc32)cc1 [SULINDAC SULFIDE] | Not Active | Not Active | Not Active | Not Active | Not Active |  |
| Nc1c2c(nc3ccccc13)CCCC2 [TACRINE] | Not Active | Not Active | Not Active | Not Active | Not Active |  |
| CN1CCN(CCCN2c3ccccc3Sc3ccc(Cl)cc32)CC1 [PROCHLORPERAZINE] | Not Active | Not Active | Not Active |  | Not Active | IC50 ([2]; read-out: IC50): 0.267 µM; Ki ([2]; read-out: Ki): 0.124 µM |
| N[C@@H](Cc1ccc(O)c(O)c1)C(=O)O [LEVODOPA] | Not Active | Not Active | Not Active | Not Active | Not Active |  |

| Molecule | IC50 (Adenosine receptor A1; cho) | IC50 ([1]; cho-k1) | IC50 (Histamine H2 receptor; cho-k1) | IC50 ([2]; hela) | IC50 (Substance-P receptor; cho) | also measured |
| --- | --- | --- | --- | --- | --- | --- |
| O=NN(CCCl)C(=O)NC1CCCCC1 [LOMUSTINE] | Not Active | Not Active | Not Active | Not Active | Not Active |  |
| Cc1c(C)c2c(c(C)c1O)CCC(C)(COc1ccc(CC3SC(=O)NC3=O)cc1)O2 (stereo not given) [TROGLITAZONE] | Not Active | Not Active | Not Active | Not Active | Not Active |  |
| CCOC(=O)N1CCC(=C2c3ccc(Cl)cc3CCc3cccnc32)CC1 [LORATADINE] | Not Active | Not Active | Not Active | Not Active | Not Active |  |
| Cc1cccc(N(C)C(=S)Oc2ccc3ccccc3c2)c1 [TOLNAFTATE] | Not Active | Not Active | Not Active | Not Active | Not Active |  |
| NC[C@H]1CC[C@H](C(=O)O)CC1 [TRANEXAMIC ACID] | Not Active | Not Active | Not Active | Not Active | Not Active |  |
| CC[C@@H](CO)NC(=O)[C@@H]1C=C2c3cccc4[nH]cc(c34)C[C@H]2N(C)C1 [METHYLERGONOVINE] | Not Active | Not Active | Not Active |  | Not Active | IC50 ([2]; read-out: IC50): 0.00254 µM; Ki ([2]; read-out: Ki): 0.00118 µM |
| c1ccc([C@H]2CN3CCSC3=N2)cc1 [LEVAMISOLE] | Not Active | Not Active | Not Active | Not Active | Not Active |  |
| OCCN(CCO)c1nc(N2CCCCC2)c2nc(N(CCO)CCO)nc(N3CCCCC3)c2n1 [DIPYRIDAMOLE] | Not Active | Not Active | Not Active | Not Active | Not Active |  |
| CC(C)(C)NC(=O)[C@@H]1C[C@@H]2CCCC[C@@H]2CN1C[C@@H](O)[C@H](Cc1ccccc1)NC(=O)[C@H](CC(N)=O)NC(=O)c1ccc2ccccc2n1 | Not Active | Not Active | Not Active | Not Active | Not Active |  |
| Nc1nc2nc[nH]c2c(=S)[nH]1 [THIOGUANINE] | Not Active | Not Active | Not Active | Not Active | Not Active |  |
| SODIUM NITROPRUSSIDE | Not Active | Not Active | Not Active | Not Active | Not Active | Ki (Adenosine receptor A1; cho): Not Active; Ki ([1]; cho-k1): Not Active; Ki (Histamine H2 receptor; cho-k1): Not Active; Ki ([2]; hela): Not Active; Ki (Substance-P receptor; cho): Not Active |
| Cn1ccnc1S [METHIMAZOLE] | Not Active | Not Active | Not Active | Not Active | Not Active |  |
| Cc1oncc1C(=O)Nc1ccc(C(F)(F)F)cc1 [LEFLUNOMIDE] | Not Active | Not Active | Not Active | Not Active | Not Active |  |
| CC/C(=C(\c1ccccc1)c1ccc(OCCN(C)C)cc1)c1ccccc1 [TAMOXIFEN] |  | Not Active |  |  |  | IC50 (Histamine H2 receptor; read-out: IC50): 9.4 µM; Ki (Histamine H2 receptor; read-out: Ki): 9.24 µM; IC50 ([2]; read-out: IC50): 2.68 µM; Ki ([2]; read-out: Ki): 1.24 µM; IC50 (Substance-P receptor; read-out: IC50): 15.7 µM; Ki (Substance-P receptor; read-out: Ki): 8.54 µM |
| COc1c(C)c2c(c(O)c1C/C=C(\C)CCC(=O)O)C(=O)OC2 [MYCOPHENOLIC ACID] | Not Active | Not Active | Not Active | Not Active | Not Active |  |
| CCCOc1ccccc1-c1nc2nn[nH]c2c(=O)[nH]1 [ZAPRINAST] | Not Active | Not Active | Not Active | Not Active | Not Active |  |
| C=CCC1(C(C)CCC)C(=O)NC(=O)NC1=O (stereo not given) [SECOBARBITAL] | Not Active | Not Active | Not Active | Not Active | Not Active |  |
| CC(=O)[C@@]1(O)CC[C@H]2[C@@H]3C[C@H](C)C4=CC(=O)CC[C@]4(C)[C@H]3CC[C@@]21C | Not Active | Not Active | Not Active | Not Active | Not Active |  |
| N#CC(C#N)=Cc1ccc(O)c(O)c1 [TYRPHOSTIN 23] | Not Active | Not Active | Not Active | Not Active | Not Active |  |
